Biological target: T1, FGFR-1 (Homo sapiens, UniProt P11362)
T1 construct: GST; made in house
Test: FGFR-1 TR-FRET biochemical assay
Settings: 0.6 uM ATP, 5 nM FGFR1-GST; bounds given in nM
Summary of the method: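 FGFR1-GST (5 nM) was incubated with poly GT-biotin (25 nM) and 0.6 uM ATP in HEPES pH 7.5/MgCl2 with 1% DMSO for 1 h at room temperature. Phosphorylation was read by LANCE TR-FRET (Eu-anti-pTyr/SA-APC, 665/615 ratio). Percent inhibition was background-corrected against no-ATP wells, with final compound concentrations of 10 μM–0.128 nM.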

T1 sequence (P11362 22-822): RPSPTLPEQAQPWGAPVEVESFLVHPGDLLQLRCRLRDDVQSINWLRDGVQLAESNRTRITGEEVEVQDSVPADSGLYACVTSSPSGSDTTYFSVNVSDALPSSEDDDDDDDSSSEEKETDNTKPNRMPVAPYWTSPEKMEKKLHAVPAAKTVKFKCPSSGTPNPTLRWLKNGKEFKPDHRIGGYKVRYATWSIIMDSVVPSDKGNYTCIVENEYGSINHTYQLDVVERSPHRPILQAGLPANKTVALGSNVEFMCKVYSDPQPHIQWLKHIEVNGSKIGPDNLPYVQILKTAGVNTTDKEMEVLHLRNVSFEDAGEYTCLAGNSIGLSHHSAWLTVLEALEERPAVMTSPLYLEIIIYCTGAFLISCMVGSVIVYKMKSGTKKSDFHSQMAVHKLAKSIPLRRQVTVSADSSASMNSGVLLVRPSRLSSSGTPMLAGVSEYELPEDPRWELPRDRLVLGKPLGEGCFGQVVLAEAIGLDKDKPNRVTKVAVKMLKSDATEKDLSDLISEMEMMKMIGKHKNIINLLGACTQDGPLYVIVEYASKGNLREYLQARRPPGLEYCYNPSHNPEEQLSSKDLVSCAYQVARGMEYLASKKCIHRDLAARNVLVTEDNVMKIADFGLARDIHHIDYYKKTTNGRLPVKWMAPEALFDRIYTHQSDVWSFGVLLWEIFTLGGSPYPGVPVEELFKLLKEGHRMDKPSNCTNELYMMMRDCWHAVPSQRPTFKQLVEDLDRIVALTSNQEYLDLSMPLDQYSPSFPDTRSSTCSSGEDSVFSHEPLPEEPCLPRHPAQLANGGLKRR

Row | SMILES | IC50 [nM]
1 | Nc1ncnn2c(-c3cnco3)cc(-c3ccc(NC(=O)Nc4cc(C(F)(F)F)ccn4)c(F)c3)c12 [Example 273, N-{4-[4-amino-7-(1,3-oxazol-5-yl)pyrrolo[2,1-f][1,2,4]triazin-5-yl]-2fluorophenyl}-N′-[4-(trifluoromethyl)pyridin-2-yl]urea] | 10 to 100
2 | CNC(=O)CN1CCC(c2cc(-c3ccc(NC(=O)Nc4cc(C(F)(F)F)ccc4F)c(F)c3)c3c(N)ncnn23)CC1 [Example 120, 2-[4-(4-amino-5-3-fluoro-4-[([2-fluoro-5-(trifluoromethyl)phenyl]aminocarbonyl)amino]phenylpyrrolo[2,1-f][1,2,4]triazin-7-yl)piperidin-1-yl]-N-methylacetamide] | < 10
3 | Nc1ncnn2c(C3CCNC3)cc(-c3ccc(NC(=O)Nc4cc(C(F)(F)F)ccc4F)cc3)c12 (stereo not shown) [Example 206, 1-[4-(4-amino-7-pyrrolidin-3-ylpyrrolo[2,1-f][1,2,4]triazin-5-yl)phenyl]-3-[2-fluoro-5-(trifluoromethyl)phenyl]urea] | < 10
4 | Cc1cc(-c2cc(CN3CCOCC3)n3ncnc(N)c23)ccc1NC(=O)Nc1ccc(F)c(C(F)(F)F)c1 [Example 27, N-{4-[4-amino-7-(morpholin-4-ylmethyl)pyrrolo[2,1-f][1,2,4]triazin-5-yl]-2-methylphenyl}-N′-[4-fluoro-3-(trifluoromethyl)phenyl]urea] | < 10
5 | Cc1cc(-c2cc(CCCN3CCOCC3)n3ncnc(N)c23)ccc1NC(=O)Nc1cc(C(F)(F)F)ccc1F [Example 221, N-{4-[4-amino-7-(3-morpholin-4-ylpropyl)pyrrolo[2,1-f][1,2,4]triazin-5-yl]-2-methylphenyl}-N′-[2-fluoro-5-(trifluoromethyl)phenyl]urea] | < 10
6 | Nc1ncnn2c(C3CCN(C(=O)CO)CC3)cc(-c3ccc(NC(=O)Nc4cc(C(F)(F)F)ccc4F)c(Cl)c3)c12 [Example 173, N-{4-[4-amino-7-(1-glycoloylpiperidin-4-yl)pyrrolo[2,1-f][1,2,4]triazin-5-yl]-2-chlorophenyl}-N′-[2-fluoro-5-(trifluoromethyl)phenyl]urea] | < 10
7 | CCS(=O)(=O)N1CCN(Cc2cc(-c3ccc(NC(=O)Nc4cc(C(F)(F)F)ccc4F)cc3)c3c(N)ncnn23)CC1 [Example 84, N-[4-(4-amino-7-{[4-(ethylsulfonyl)piperazin-1-yl]methyl}pyrrolo[2,1-f][1,2,4]triazin-5-yl)phenyl]-N′-[2-fluoro-5-(trifluoromethyl)phenyl]urea] | 10 to 100
8 | Nc1ncnn2c(CN3CCOCC3)cc(-c3ccc(NC(=O)Nc4cc(C(F)(F)F)ccc4Cl)c(F)c3)c12 [Example 65, N-4-[4-amino-7-(morpholin-4-ylmethyl)pyrrolo[2,1-f][1,2,4]triazin-5-yl]-2-fluorophenyl-N′-[2-chloro-5-(trifluoromethyl)phenyl]urea] | < 10
9 | CC(=O)c1cc(-c2ccc(NC(=O)Nc3cc(C(F)(F)F)ccc3F)c(F)c2)c2c(N)ncnn12 [Example 253, N-[4-(7-acetyl-4-aminopyrrolo[2,1-f][1,2,4]triazin-5-yl)-2-fluorophenyl]-N′-[2-fluoro-5-(trifluoromethyl)phenyl]urea] | < 10
10 | Nc1ncnn2c(CCCN3CCOCC3)cc(-c3ccc(NC(=O)Nc4cc(C(F)(F)F)ccc4F)c(F)c3)c12 [Example 109, N-{4-[4-amino-7-(3-morpholin-4-ylpropyl)pyrrolo[2,1-f][1,2,4]triazin-5-yl]-2-fluorophenyl}-N′-[2-fluoro-5-(trifluoromethyl)phenyl]urea] | < 10
11 | Nc1ncnn2c(C(=O)CO)cc(-c3ccc(NC(=O)Nc4cc(C(F)(F)F)ccc4F)c(F)c3)c12 [Example 234, N-[4-(4-amino-7-glycoloylpyrrolo[2,1-f][1,2,4]triazin-5-yl)-2-fluorophenyl]-N′-[2-fluoro-5-(trifluoromethyl)phenyl]urea] | 10 to 100
12 | Nc1ncnn2c(CCN3CCCOCC3)cc(-c3ccc(NC(=O)Nc4cc(C(F)(F)F)ccc4F)c(F)c3)c12 [Example 226, N-(4-{4-amino-7-[2-(1,4-oxazepan-4-yl)ethyl]pyrrolo[2,1-f][1,2,4]triazin-5-yl}-2-fluorophenyl)-N′-[2-fluoro-5-(trifluoromethyl)phenyl]urea] | < 10
13 | Cc1cc(-c2cc(CN3CCNC(=O)C3)n3ncnc(N)c23)ccc1NC(=O)Nc1cc(C(F)(F)F)ccc1F [Example 165, N-(4-{4-amino-7-[(3-oxopiperazin-1-yl)methyl]-pyrrolo[2,1-f][1,2,4]triazin-5-yl}-2-methylphenyl)-N′-[2-fluoro-5-(trifluoromethyl)-phenyl]urea] | < 10
14 | Nc1ncnn2c(CN3CCOCC3)cc(-c3cc(F)c(NC(=O)Nc4cc(C(F)(F)F)ccc4F)c(F)c3)c12 [Example 7, N-{4-[4-amino-7-(morpholin-4-ylmethyl)-pyrrolo[2,1-f][1,2,4]triazin-5-yl]-2,6-difluorophenyl}-N′-[Z-fluoro-5-(trifluoro-methyl)phenyl]urea] | > 100
15 | CC(=O)N1CCC(c2cc(-c3ccc(NC(=O)Nc4cc(C(F)(F)F)ccn4)c(F)c3)c3c(N)ncnn23)CC1 [Example 237, N-{4-[7-(1-acetylpiperidin-4-yl)-4-aminopyrrolo[2,1-f][1,2,4]triazin-5-yl]-2-fluorophenyl}-N′-[4-(trifluoromethyl)pyridin-2-yl]urea] | < 10
16 | CC(=O)c1cccc(NC(=O)Nc2ccc(-c3cc(CN4CCOCC4)n4ncnc(N)c34)cc2)c1 [Example 59, N-(3-acetylphenyl)-N′-{4-[4-amino-7-(morpholin-4-ylmethyl)pyrrolo[2,1-f][1,2,4]triazin-5-yl]phenyl}urea] | 10 to 100
17 | Nc1ncnn2c(CCCCN3CCOCC3)cc(-c3ccc(NC(=O)Nc4cc(C(F)(F)F)ccc4F)c(F)c3)c12 [Example 224, N-{4-[4-amino-7-(4-morpholin-4-ylbutyl)pyrrolo[2,1-f][1,2,4]triazin-5-yl]-2-fluorophenyl}-N′-[2-fluoro-5-(trifluoromethyl)phenyl]urea] | < 10

More lines, now with the values ahead:

Row | IC50 [nM] | SMILES
18 | < 10 | Nc1ncnn2c(CN3CCCOCC3)cc(-c3ccc(NC(=O)Nc4cc(C(F)(F)F)ccc4F)c(F)c3)c12 [Example 177, N-{4-[4-amino-7-(1,4-oxazepan-4-ylmethyl)pyrrolo[2,1-f][1,2,4]triazin-5-yl]-2-fluorophenyl}-N′-[2-fluoro-5-(trifluoromethyl)phenyl]urea]
19 | < 10 | Nc1ncnn2c(CN3CCS(=O)(=O)CC3)cc(-c3ccc(NC(=O)Nc4cccc(C(F)(F)F)c4)c(F)c3)c12 [Example 77, N-(4-{4-amino-7-[(1,1-dioxidothiomorpholin-4-yl)methyl]pyrrolo[2,1-f][1,2,4]triazin-5-yl}-2-fluorophenyl)-N′-[3-(trifluoromethyl)phenyl]urea]
20 | < 10 | CN1CCN(CCCc2cc(-c3ccc(NC(=O)Nc4cc(C(F)(F)F)ccc4F)c(F)c3)c3c(N)ncnn23)CC1 [Example 187, N-(4-{4-amino-7-[3-(4-methylpiperazin-1-yl)propyl]pyrrolo[2,1-f][1,2,4]triazin-5-yl}-2-fluorophenyl)-N′-[2-fluoro-5-(trifluoromethyl)phenyl]urea]
21 | < 10 | Nc1ncnn2c(CN3CCCOCC3)cc(-c3cc(F)c(NC(=O)Nc4cc(C(F)(F)F)ccc4F)cc3F)c12 [Example 168, N-{4-[4-amino-7-(1,4-oxazepan-4-ylmethyl)pyrrolo[2,1-f][1,2,4]triazin-5-yl]-2,5-difluorophenyl}-N′-[2-fluoro-5-(trifluoromethyl)phenyl]urea]
22 | < 10 | Nc1ncnn2c(C3CCNCC3)cc(-c3ccc(NC(=O)Nc4cc(C(F)(F)F)ccc4F)c(F)c3)c12 [Example 111, N-[4-(4-amino-7-piperidin-4-ylpyrrolo[2,1-f][1,2,4]-triazin-5-yl)-2-fluorophenyl]-N′-[2-fluoro-5-(trifluoromethyl)phenyl]urea]
23 | < 10 | CN(C)CC(=O)N1CCC(c2cc(-c3ccc(NC(=O)Nc4cc(C(F)(F)F)ccc4F)c(Cl)c3)c3c(N)ncnn23)CC1 [Example 240, N-(4-{4-amino-7-[1-(N,N-dimethylglycyl)piperidin-4-yl]pyrrolo[2,1-f][1,2,4]triazin-5-yl}-2-chlorophenyl)-N′-[2-fluoro-5-(trifluoromethyl)phenyl]urea]
24 | < 10 | Nc1ncnn2c(CCCN3CCS(=O)(=O)CC3)cc(-c3ccc(NC(=O)Nc4cc(C(F)(F)F)ccc4F)c(F)c3)c12 [Example 189, N-(4-{4-amino-7-[3-(1,1-dioxidothiomorpholin-4-yl)propyl]pyrrolo[2,1-f][1,2,4]triazin-5-yl}-2-fluorophenyl)-N′-[2-fluoro-5-(trifluoromethyl)phenyl]urea]
25 | < 10 | CC(=O)N1CCN(CCCc2cc(-c3ccc(NC(=O)Nc4cc(C(F)(F)F)ccc4F)c(F)c3)c3c(N)ncnn23)CC1 [Example 188, N-(4-{7-[3-(4-acetylpiperazin-1-yl)propyl]-4-aminopyrrolo[2,1-f][1,2,4]triazin-5-yl}-2-fluorophenyl)-N′-[2-fluoro-5-(trifluoromethyl)phenyl]urea]
26 | < 10 | Nc1ncnn2c(CCCN3CCOCC3)cc(-c3ccc(NC(=O)Nc4cc(C(F)(F)F)ccn4)cc3)c12 [Example 107, N-{4-[4-amino-7-(3-morpholin-4-ylpropyl)pyrrolo[2,1-f][1,2,4]triazin-5-yl]phenyl}-N′-[4-(trifluoromethyl)pyridin-2-yl]urea]
27 | < 10 | CC(=O)N1CCC(c2cc(-c3ccc(NC(=O)Nc4cc(C(F)(F)F)ccc4F)c(Cl)c3)c3c(N)ncnn23)CC1 [Example 219, N-{4-[7-(1-acetylpiperidin-4-yl)-4-aminopyrrolo[2,1-f][1,2,4]triazin-5-yl]-2-chlorophenyl}-N′-[2-fluoro-5-(trifluoromethyl)phenyl]urea]

Same assay, conditions: upper bound of the bin 'greater than 100 nM but less than 1 μM' (lower bound in E1)

Row | SMILES | IC50 [nM]
28 | Nc1ncnn2c(CN3CCOCC3)cc(-c3cc(F)c(NC(=O)Nc4cc(C(F)(F)F)ccc4F)c(F)c3)c12 [Example 7, N-{4-[4-amino-7-(morpholin-4-ylmethyl)-pyrrolo[2,1-f][1,2,4]triazin-5-yl]-2,6-difluorophenyl}-N′-[Z-fluoro-5-(trifluoro-methyl)phenyl]urea] | < 1000

— patent publication US8143393B2, “Substituted 4-amino-pyrrolotriazine derivatives useful for treating hyper-proliferative disorders and diseases associated with angiogenesis” (Bayer HealthCare LLC, priority 2005, dated 2012)
